In the assay the target is T1, COX-1 (Ovis aries, UniProt P05979).
T1 sequence (P05979 25-600): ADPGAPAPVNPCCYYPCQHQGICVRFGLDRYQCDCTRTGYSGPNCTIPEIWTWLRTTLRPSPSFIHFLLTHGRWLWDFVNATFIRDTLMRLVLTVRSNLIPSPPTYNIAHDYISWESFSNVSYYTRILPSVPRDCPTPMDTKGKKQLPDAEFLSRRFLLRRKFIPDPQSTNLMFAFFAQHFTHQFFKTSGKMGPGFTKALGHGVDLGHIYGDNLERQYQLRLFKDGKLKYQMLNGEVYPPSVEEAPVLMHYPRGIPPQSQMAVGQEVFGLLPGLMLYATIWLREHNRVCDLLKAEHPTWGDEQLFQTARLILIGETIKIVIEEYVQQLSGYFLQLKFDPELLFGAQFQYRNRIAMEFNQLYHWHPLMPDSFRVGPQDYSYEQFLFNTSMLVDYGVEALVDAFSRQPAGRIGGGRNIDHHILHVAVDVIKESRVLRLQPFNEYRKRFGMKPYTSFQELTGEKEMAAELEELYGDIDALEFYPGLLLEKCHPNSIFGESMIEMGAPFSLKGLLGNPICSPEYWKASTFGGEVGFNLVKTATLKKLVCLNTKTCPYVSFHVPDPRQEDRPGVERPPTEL
The assay is described as follows: inhibition of COX-1-catalyzed oxidation of arachidonic acid. It is filed as biochemical. The following applies: at concentrations up to 1 mM.

Consider `Cc1nc2c(c(C)c1O)CNC(=O)N2` [compound 13], for which the “COX-1 inhibition (in words)” value was “not able to significantly inhibit COX-1”.

Values taken from paper PMC3904457 (ACS medicinal chemistry letters, 2013).
